From ChEMBL document CHEMBL1158021, “Okaramines H and I, new okaramine congeners, from aspergillus aculeatus” (1999)

system: Bombyx mori; assay: Insecticidal activity against third instar larvae of silkworm assessed per gm diet; assay type: functional

SMILES	LD50 [µg]
C=CC(C)(C)N1c2ccccc2[C@]2(O)C[C@@H]3C(=O)N4/C=C\C(C)(C)c5[nH]c6ccccc6c5/C=C\4C(=O)N3[C@H]12 [OKARAMINE A]	8
CO[C@@H]1[C@]2(O)C(=O)N3/C=C\C(C)(C)c4[nH]c5ccccc5c4/C=C\3C(=O)N2[C@]23[C@H](C)C(C)(C)N2c2ccccc2[C@]13O [OKARAMINE B]	0.2
CC(C)=CCN1c2ccccc2[C@]2(O)C[C@@H]3C(=O)N4/C=C\C(C)(C)c5[nH]c6ccccc6c5/C=C\4C(=O)N3[C@H]12 [OKARAMINE H]	>100
CC1(C)/C=C\N2C(=O)[C@H]3C[C@@]4(O)c5ccccc5N[C@H]4N3C(=O)/C2=C/c2c1[nH]c1ccccc21 [OKARAMINE I]	>100
